Results taken from patent US10123985B2, “Therapeutic strategies for treating mitochondrial disorders” (Whitehead Institute for Biomedical Research, priority 2015, dated 2018).
Entries after “also recorded” stand apart in the source; their conditions may differ.

Experiments:
Jurkat cells = test: Metabolite profiling (LC/MS) of Jurkat cells; type: cell-based, human; conditions: pyruvate 1 mM
Description: LC/MS analyses were conducted on a QExactive benchtop orbitrap mass spectrometer equipped with an Ion Max source and a HESI II probe, which was coupled to a Dionex UltiMate 3000 UPLC system (Thermo Fisher Scientific, San Jose, Calif.). External mass calibration was performed using the standard calibration mixture every 7 days.
Polar metabolites were extracted using 1 ml of ice-cold 80% methanol with 10 ng/ml valine-d8 as an internal standard. After a 10 min vortex and centrifugation for 10 min at 4° C. at 10,000 g, samples were dried under nitrogen gas. Dried samples were stored at −80° C. and then resuspended in 100 μL water; 1 μl of each sample was injected onto a ZIC-pHILIC 2.1×150 mm (5 μm particle size) column (EMD Millipore). Buffer A was 20 mM ammonium carbonate, 0.1% ammonium hydroxide; buffer B was acetonitrile. The chromatographic gradient was run at a flow rate of 0.150 ml/min as follows: 0-20 min.: linear gradient from 80% to 20% B; 20-20.5 min.: linear gradient from 20% to 80% B; 20.5-28 min.: hold at 80% B. The mass spectrometer was operated in fullscan, polarity switching mode with the spray voltage set to 3.0 kV, the heated capillary held at 275° C., and the HESI probe held at 350° C. The sheath gas flow was set to 40 units, the auxiliary gas flow was set to 15 units, and the sweep gas flow was set to 1 unit. The MS data acquisition was performed in a range of 70-1000 m/z, with the resolution set at 70,000, the AGC target at 106, and the maximum injection time at 80 msec. Relative quantitation of polar metabolites was performed with XCalibur QuanBrowser 2.2 (Thermo Fisher Scientific) using a 5 ppm mass tolerance and referencing an in-house library of chemical standards.

143B CytB cells [1] = test: Cell cycle distribution by propidium iodide flow cytometry; type: cell-based; conditions: 143B CytB cells without AKB compared with AKB, 78 hours
Description: 143B CytB cells were incubated in untreated media or media containing AKB or 100 μM adenine for 78 hours before being washed with PBS, trypsinized, pelleted, and resuspended in 500 μL PBS. Cells were fixed by adding 4.5 mL 70% ethanol and incubated at 4° C. overnight. The following day cells were pelleted and resuspended in 1 mL PBS+0.1% (v/v) Triton X-100. RNase A and then propidium iodide (PI) were added to 0.2 mg/mL and 20 μg/mL, respectively. Samples were incubated at 37° C. for 15 minutes and filtered into a flow cytometry tube. DNA content was measured by flow cytometry (BD FACS Canto II) and analyzed (FACS Diva Software).

143B CytB cells [2] = test: GC-MS of AKB and AHB concentration in the media during proliferation assay; type: cell-based; conditions: media of 143B CytB cells proliferating with AKB
Description: FIG. 1. Cytochrome B mutant 143B cybrid cells are auxotrophic for oxidized substrates that can regenerate NAD^+. (A) Proliferation rate of 143B CytB cells was determined in the presence or absence of pyruvate. (left) Cells were normalized to cell number at t=0 when media conditions were applied. (B) A major fate of pyruvate is as a substrate of lactate dehydrogenase (LDH) where it accepts electrons from NADH to produce NAD^+ and lactate. (C) α-Ketobutyrate (AKB) can act as an alternative electron acceptor substrate for LDH, yielding NAD^+ α-hydroxybutyrate (AHB). (D) Proliferation rate for 143B CytB cells in the presence or absence of AKB was determined as in (A). (E) Intracellular ratio of NAD^+/NADH was determined in 143B CytB cells in untreated media or in the presence of pyruvate (Pyr) or AKB. (F) The concentration of AKB and AHB in the media was determined by GC-MS analysis for each day of a proliferation assay of 143B CytB cells in the presence of AKB as in (D). […]
Given the chemical structure differences between AKB and pyruvate, they cannot share direct carbon-fates, thus we reasoned that AKB is likely being used predominantly as an electron acceptor and not as a carbon substrate in metabolic pathways. To verify this we measured the consumption rate of AKB and the excretion rate of the reduced product, α-hydroxybutyrate (AHB), formed upon NAD^+ regeneration (FIG. 1C). […]

143B cells [3] = test: Mitochondrial oxygen consumption (Seahorse XF24), cells treated with respiration inhibitors; type: cell-based; conditions: ETC inhibitors plus AKB
Description: Oxygen consumption rates were determined on a Seahorse Bioscience Extracellular Flux Analyzer (XF24). Cells were plated in Seahorse Bioscience 24 well plates at 6E4 cells per well in 100 μL complete DMEM, allowed to attach for 1 hour, and 500 μl complete DMEM was added before overnight incubation. The following day cells were washed 2 times in assay media: DMEM without phenol red or pyruvate containing 0.5% dialyzed FBS and 0.1 mg/mL uridine at pH 7.4 and incubated in 500 μL of the same media for the assay.

143B cells [4] = test: Measurement of NAD+/NADH (NAD/NADH Glo) in 143B cells with respiration inhibitors; type: cell-based; conditions: 143B cells, ETC inhibitors plus AKB, 6 hours
Description: NAD^+/NADH measurements were done using a modified version of manufacturer instructions of NAD/NADH Glo Assay (Promega). Cells were plated and treated as for proliferation assays and cell extracts were taken 6 hours after treatment. For extraction, cells were quickly washed 3 times in ice cold PBS, extracted in 100 μL ice cold lysis buffer (1% Dodecyltrimethylammonium bromide (DTAB) in 0.2 N NaOH diluted 1:1 with PBS), and immediately frozen at −80° C. To measure NADH, 20 μL of sample was moved to PCR tubes and incubated at 75° C. for 30 min, where the basic conditions will selectively degrade NAD^+. To measure NAD^+, 20 μL of the samples was moved to PCR tubes containing 20 μL lysis buffer and 20 μL 0.4 N HCl and incubated at 60° C. for 15 min, where acidic conditions will degrade NADH. Following incubations, samples were allowed to equilibrate to room temperature and then quenched by neutralizing with 20 μL 0.25 M Tris in 0.2 N HCl (NADH) or 20 μL 0.5 M Tris base (NAD^+). Manufacturer instructions were followed thereafter to measure NAD^+/NADH.

143B CytB cells [5] = test: Amino acid and TCA cycle metabolite GC-MS analysis, 143B CytB cells; type: cell-based; conditions: AKB withdrawal
Description: 143B and 143B CytB cells were seeded at 400,000 cells/well in 6 well dishes overnight. The following day, cells were washed 2 times in PBS and media was changed to proliferation assay media with or without the indicated treatments. After 8 hours, polar metabolites were extracted using 80% methanol in water with 1 μg norvaline per sample. Soluble content was then dried under nitrogen gas. Polar samples were derivatized and measured as detailed in (Lewis). Relative metabolite abundances were determined by integrating ion peak area (Metran) and normalized to norvaline internal extraction standard.

SMILES | Aspartate synthesis with pyruvate (Jurkat cells; MDH1-null Jurkat cells treated with ETC inhibitors) | Aspartate levels with pyruvate (Jurkat cells; phenformin-treated (10 μM, 24 hours) GOT1-null Jurkat cells) | Aspartate levels with pyruvate (Jurkat cells; phenformin-treated (10 μM, 24 hours) wild type Jurkat cells) | Cell cycle distribution (DNA content) (143B CytB cells [1]) | Consumption rate of AKB versus excretion rate of AHB (143B CytB cells [2]) | O2 consumption (143B cells [3]) | Cellular NAD+/NADH ratio (143B cells [4]) | Aspartate intracellular pool size (143B CytB cells [5]) | Glutamate intracellular pool size (143B CytB cells [5]) | TCA cycle metabolite pool sizes (143B CytB cells [5])
CC(=O)C(=O)O [pyruvate] | did not stimulate aspartate synthesis; also recorded: depends on MDH1 | no effect on aspartate | increases cellular aspartate levels in a GOT1-dependent manner; also recorded: restored aspartate levels to normal in phenformin-treated wild type cells | – | – | – | – | – | – | –
CCC(=O)C(=O)O [AKB, α-ketobutyrate] | – | – | – | do not obviously arrest at a specific stage of the cell cycle | the consumption rate of AKB matched the excretion rate of AHB | no effect on O2 consumption | restored NAD^+/NADH | also decreased | only modestly decreased | drastically lowered
